Source: ChEMBL document CHEMBL1201862, “PubChem BioAssay data set” (2004)
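Method: 48-hour compound exposure of cells in 96-well plates, five concentrations, linear interpolation of endpoints. GI50: concentration for 50% inhibition of growth.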 Activity calls are given as the source filed them. Rule as the data show it: active = GI50 up to about 1.1 µM and inactive = higher.

How the values were obtained:
Test in all cases: inhibition of tumour cell growth, NCI panel, 48 h
MDA-MB-231 = tested on: MDA-MB-231
COLO 205 = tested on: COLO 205
MOLT-4 = tested on: MOLT-4
SF-295 = tested on: SF-295
HCT-15 = tested on: HCT-15
SNB-19 = tested on: SNB-19
HOP-92 = tested on: HOP-92
NCI-H522 = tested on: NCI-H522
MCF7 = tested on: MCF7
Malme-3M = tested on: Malme-3M
SF-268 = tested on: SF-268
OVCAR-3 = tested on: OVCAR-3
BT-549 = tested on: BT-549
PC-3 = tested on: PC-3
KM12 = tested on: KM12
T47D = tested on: T47D
OVCAR-4 = tested on: OVCAR-4
RXF 393 = tested on: RXF 393
EKVX = tested on: EKVX
IGROV-1 = tested on: IGROV-1

Compound | GI50 (MDA-MB-231) | GI50 (COLO 205) | GI50 (MOLT-4) | GI50 (SF-295) | GI50 (HCT-15) | GI50 (SNB-19) | GI50 (HOP-92) | GI50 (NCI-H522) | GI50 (MCF7) | GI50 (Malme-3M) | GI50 (SF-268) | GI50 (OVCAR-3) | GI50 (BT-549) | GI50 (PC-3) | GI50 (KM12) | GI50 (T47D) | GI50 (OVCAR-4) | GI50 (RXF 393) | GI50 (EKVX) | GI50 (IGROV-1)
CSc1ccc2c(cc1=O)[C@@H](NC(=O)c1ccc([N+](=O)[O-])cc1)CCc1cc(O)c(O)c(O)c1-2 | 28.2 µM (inactive) | 24.7 µM (inactive) | 30.6 µM (inactive) | 32.8 µM (inactive) | 30.4 µM | 18.4 µM (inactive) | > 100 µM (inactive) | 37.2 µM (inactive) | 31.8 µM (inactive) | > 100 µM (inactive) | 59 µM (inactive) | 15.7 µM (inactive) | 60.3 µM (inactive) | > 100 µM (inactive) | 17.7 µM (inactive) | > 100 µM (inactive) | 39.8 µM (inactive) | > 100 µM (inactive) | > 100 µM (inactive) | 35.4 µM (inactive)
CCCCN1C(=O)c2c(-c3sccc3N)sc(-c3sccc3N)c2C1=O | 30.8 µM (inactive) | 15.4 µM (inactive) | 2.8 µM (inactive) | 14.5 µM (inactive) | > 34.9 µM | 18.9 µM (inactive) | 52 µM (inactive) | 14.1 µM (inactive) | 11.2 µM (inactive) | 21.6 µM (inactive) | 12.3 µM (inactive) | 16 µM (inactive) | 29.4 µM (inactive) | 14.8 µM (inactive) | 44.6 µM (inactive) | 14.2 µM (inactive) | 10.9 µM (inactive) | 12.6 µM (inactive) | 26.9 µM (inactive) | 23 µM (inactive)
C=CCOc1ccc(C2(c3ccc(OCC=C)cc3)C(=O)Nc3ccccc32)cc1 | > 10 µM (inactive) | 7.19 µM (inactive) | > 10 µM (inactive) | > 10 µM (inactive) | > 10 µM | > 10 µM (inactive) | > 10 µM (inactive) | > 10 µM (inactive) | 8.57 µM (inactive) | > 10 µM (inactive) | > 10 µM (inactive) | > 10 µM (inactive) | 9.31 µM (inactive) | > 10 µM (inactive) | > 10 µM (inactive) | 8.13 µM (inactive) | 3.4 µM (inactive) | > 10 µM (inactive) | > 10 µM (inactive) | > 10 µM (inactive)
CCCCCCCCCCCCCCCCOCC(Cl)COP(=O)(O)OP(=O)(O)OCC1OC(n2cc(C)c(=O)[nH]c2=O)CC1O (stereo not given) | 49 µM (inactive) | > 100 µM (inactive) | > 100 µM (inactive) | 57 µM (inactive) | > 100 µM | > 100 µM (inactive) | 29.5 µM (inactive) | > 100 µM (inactive) | > 100 µM (inactive) | > 100 µM (inactive) | 69.2 µM (inactive) | > 100 µM (inactive) | > 100 µM (inactive) | 25.1 µM (inactive) | 95.7 µM (inactive) | 97.3 µM (inactive) | > 100 µM (inactive) | > 100 µM (inactive) | > 100 µM (inactive) | 55.2 µM (inactive)
Clc1ccc(-c2c(C3=NCCCN3)nnn2-c2ccc(Cl)cc2)cc1 | > 48.2 µM (inactive) | 16.6 µM (inactive) | 27.4 µM (inactive) | 34.7 µM (inactive) | 75.5 µM | > 68.7 µM (inactive) | 22.8 µM (inactive) | 32.9 µM (inactive) | 26.8 µM (inactive) | 17.8 µM (inactive) | 48.8 µM (inactive) | > 78.7 µM (inactive) | > 55.1 µM (inactive) | 31.1 µM (inactive) | 57.4 µM (inactive) | 31.3 µM (inactive) | > 65.2 µM (inactive) | 17.7 µM (inactive) | 63.1 µM (inactive) | 56 µM (inactive)
O=C1C(=C(I)I)c2ccccc2-c2ccccc21 | 2.03 µM (inactive) | 1.56 µM (inactive) | 0.883 µM (active) | 16.6 µM (inactive) | 2.47 µM | 14.4 µM (inactive) | 2.26 µM (inactive) | 1.04 µM (active) | 3.59 µM (inactive) | 1.64 µM (inactive) | 6.71 µM (inactive) | 1.74 µM (inactive) | 6.12 µM (inactive) | 3.71 µM (inactive) | 12 µM (inactive) | 2.3 µM (inactive) | 2.98 µM (inactive) | 1.68 µM (inactive) | 3 µM (inactive) | 6.07 µM (inactive)
CCOP(=O)(OCC)C(Nc1cccc(F)c1)c1ccccc1 (stereo not given) | 75.5 µM (inactive) | 34.4 µM (inactive) | 30 µM (inactive) | 54.7 µM (inactive) | 44.4 µM | > 100 µM (inactive) | 32.7 µM (inactive) | 36.1 µM (inactive) | 76.6 µM (inactive) | 50.7 µM (inactive) | 59 µM (inactive) | 60.5 µM (inactive) | > 100 µM (inactive) | 50.2 µM (inactive) | 67 µM (inactive) | 22.7 µM (inactive) | 59.3 µM (inactive) | 25.2 µM (inactive) | 40.5 µM (inactive) | > 100 µM (inactive)
